System: TEAD-dependent transcription
Assay: TEAD-dependent transcription cell-based reporter assay (MSTO-211H+12XGTIIC luciferase)
Design: species or system human
Conditions: Homo sapiens; MSTO-211H+12XGTIIC cell line, luciferase signal normalized to cell viability, 24 hours compound incubation; read-out: MSTO-211H GMean IC50 (uM) Cell Assay Reporter Cell Variant: TEAD
Excerpt: Determine Inhibitor Activity Against TEAD-Dependent Transcription in a Cell-Based Reporter Assay
The human mesothelioma cell line MSTO-211H was stably transfected with a pGL4.21 plasmid containing a synthetic promoter with 12 copies of the GTIIC TEAD response element that drives the expression of a luciferase reporter gene^1 using Lipofectamine transfection reagent (Thermo Fisher). Transfected cells were selected using puromycin and single cell clones expressing this construct (referred to as MSTO-211H+12XGTIIC) were generated by limiting dilution. MSTO-211H cells was characterized by genetic alterations in key components of the Hippo pathway^2, resulting in up-regulation of YAP/TEAD-mediated transcription. […] To evaluate TEAD inhibitors, the MSTO-211H+12XGTIIC cell line was seeded in a 96-well plate in 50 μL of culture media at 1×10^4 cells per well and incubated at 37° C. overnight. Serial dilutions of compounds (in total volume of 50 μL of culture media) were added to the cells and incubated at 37° C. for 24 hours. Each plate included cells treated with DMSO as high controls and cells treated with 20 μM of the reference compound K-975 (a known TEAD inhibitor)^3 as low controls. Cell viability was assayed by the addition of 25 μL of CellTiter-Fluor reagent (Promega) followed by a 30-minute incubation at 37° C. and quantification of the fluorescence signal (Ex400/Em505). Subsequently, luciferase expression was assayed by the addition of 25 μL of ONE-Glo reagent (Promega) followed by a 10-minute incubation at room temperature and quantification of the luminescence signal. The luminescence signal was normalized to the fluorescence signal to correct for any loss in cell viability over the 24-hour compound incubation period. The percentage of inhibition of normalized luminescence signal, indicative of compound-mediated inhibition of TEAD-dependent transcription, at individual compound concentrations relative to high and low controls was calculated. The data were analyzed by using nonlinear regression to generate IC50 values for individual compounds.

| SMILES | IC50 [µM] |
| --- | --- |
| Nc1nc(CC(=O)N2CCc3ccc(Oc4ccc(C(F)(F)F)c(F)c4)cc3C2)cs1 [P-0155, 2-(2-aminothiazol-4-yl)-1-(7-(3-fluoro-4-(trifluoromethyl)phen-oxy)-3,4-dihydroisoquin-olin-2(1H)-yl)ethan-1-one] | 0.001 to 10 |
| C=CC(=O)N1CCC(C(=O)N2CCc3c(cccc3Oc3ccc(C(F)(F)F)cc3)C2)C1 (stereo not shown) [P-0253, 1-(3-(5-(4-(trifluorometh-yl)phenoxy)-1,2,3,4-tetrahydroisoquinoline-2-carbonyl)pyrrolidin-1-yl)prop-2-en-1-one] | 0.001 to 10 |
| CN(C)CCCC(=O)N1CCc2ccc(Oc3ccc(C(F)(F)F)c(F)c3)cc2C1 [P-0110, 4-(dimethylamino)-1-(7-(3-fluoro-4-(trifluoro-methyl)phenoxy)-3,4-dihydroisoquinolin-2(1H)-yl)butan-1-one] | 0.001 to 10 |
| NCC(=O)N1CCc2ccc(Oc3ccc(C(F)(F)F)c(F)c3)cc2C1 [P-0113, 2-amino-1-(7-(3-fluoro-4-(trifluoromethyl)phen-oxy)-3,4-dihydroisoquin-olin-2(1H)-yl)ethan-1-one] | 0.001 to 10 |
| CSCCC(=O)N1CCc2ccc(Oc3ccc(C(F)(F)F)cc3)cc2C1 [P-0031, 3-(methylthio)-1-(7-(4-(trifluoromethyl)phen-oxy)-3,4-dihydroisoquin-olin-2(1H)-yl)propan-1-one] | 0.001 to 10 |
| CS(=O)(=O)CCC(=O)N1CCc2ccc(Oc3ccc(C(F)(F)F)cc3)c(/C=C/C3CC3)c2C1 [P-0220, (E)-1-(8-(2-cyclopropyl-vinyl)-7-(4-(trifluoro-methyl)phenoxy)-3,4-dihydroisoquinolin-2(1H)-yl)-3-(methylsul-fonyl)propan-1-one] | 0.001 to 10 |
| CN(C)CCC(=O)N1CCc2ccc(Oc3ccc(C(F)(F)F)c(F)c3)cc2C1 [P-0094, 3-(dimethylamino)-1-(7-(3-fluoro-4-(trifluoro-methyl)phenoxy)-3,4-dihydroisoquinolin-2(1H)-yl)propan-1-one] | 0.001 to 10 |
| O=C(NC1CCCC1)N1CCc2ccc(Oc3ccc(C(F)(F)F)cc3)cc2C1 [P-0037, N-cyclopentyl-7-(4-(trifluoromethyl)phen-oxy)-3,4-dihydroiso-quinoline-2(1H)-carbox-amide] | 0.001 to 10 |
| NC(=O)CCS(=O)(=O)N1CCc2ccc(Oc3ccc(C(F)(F)F)cc3)cc2C1 [P-0051, 3-((7-(4-(trifluorometh-yl)phenoxy)-3,4-dihydro-isoquinolin-2(1H)-yl)sul-fonyl)propanamide] | 0.001 to 10 |
| NC(=O)c1cc(C(=O)N2CCc3ccc(Oc4ccc(C(F)(F)F)cc4)cc3C2)n[nH]1 [P-0124, 3-(7-(4-(trifluorometh-yl)phenoxy)-1,2,3,4-tetrahydroisoquinoline-2-carbonyl)-1H-pyrazole-5-carboxamide] | 0.001 to 10 |
| CC(=O)N1CCc2ccc(Oc3ccc(C(F)(F)F)cc3)cc2C1 [P-0013, 1-(7-(4-(trifluorometh-yl)phenoxy)-3,4-dihydroisoquinolin-2(1H)-yl)ethan-1-one] | 0.001 to 10 |
| O=C1CC(C(=O)N2CCc3ccc(Oc4ccc(C(F)(F)F)cc4)cc3C2)CCN1 (stereo not shown) [P-0130, 4-(7-(4-(trifluoromethyl)-phenoxy)-1,2,3,4-tetra-hydroisoquinoline-2-carbonyl)piperidin-2-one] | 0.001 to 10 |
| NC1=NC(=O)C(CC(=O)N2CCc3ccc(Oc4ccc(C(F)(F)F)cc4)cc3C2)S1 (stereo not shown) [P-0070, 2-amino-5-(2-oxo-2-(7-(4-(trifluoromethyl)-phenoxy)-3,4-dihydroiso-quinolin-2(1H)-yl)ethyl)-thiazol-4(5H)-one] | 0.001 to 10 |
| CS(=O)(=O)CCC(=O)N1CCc2c(cccc2Oc2ccc(C(F)(F)F)cc2)C1 [P-0269, 3-(methylsulfonyl)-1-(5-(4-(trifluoromethyl)phen-oxy)-3,4-dihydroisoquin-olin-2(1H)-yl)propan-1-one] | 0.001 to 10 |
| O=C(c1cocn1)N1CCc2ccc(Oc3ccc(C(F)(F)F)cc3)cc2C1 [P-0108, oxazol-4-yl(7-(4-(trifluoromethyl)phen-oxy)-3,4-dihydroisoquin-olin-2(1H)-yl)methanone] | 0.001 to 10 |
| CS(=O)(=O)CCC(=O)N1CCc2ccc(Oc3ccc(C(F)(F)F)cc3)c(Br)c2C1 [P-0205, 1-(8-bromo-7-(4-(trifluoromethyl)phen-oxy)-3,4-dihydroisoquin-olin-2(1H)-yl)-3-(methyl-sulfonyl)propan-1-one] | 0.001 to 10 |
| CS(=O)(=O)CCC(=O)N1CCc2ccc(Oc3ccc(Cl)cc3)cc2C1 [P-0090, 1-(7-(4-chlorophenoxy)-3,4-dihydroisoquinolin-2(1H)-yl)-3-(methylsul-fonyl)propan-1-one] | 0.001 to 10 |
| CCS(=O)(=O)NC(=O)N1CCc2c(cccc2Oc2ccc(C(F)(F)F)cc2)C1 [P-0238, N-(ethylsulfonyl)-5-(4-(trifluoromethyl)phen-oxy)-3,4-dihydroisoquin-oline-2(1H)-carboxamide] | 0.001 to 10 |
| CS(=O)(=O)NCCC(=O)N1CCc2ccc(Oc3ccc(C(F)(F)F)cc3)cc2C1 [P-0101, N-(3-oxo-3-(7-(4-(trifluoromethyl)phen-oxy)-3,4-dihydroisoquin-olin-2(1H)-yl)propyl)-methanesulfonamide] | 0.001 to 10 |
| O=C(C1CCS(=O)(=O)C1)N1CCc2ccc(Oc3ccc(C(F)(F)F)cc3)cc2C1 (stereo not shown) [P-0045, (1,1-dioxidotetrahydro-thiophen-3-yl)(7-(4-(trifluoromethyl)phen-oxy)-3,4-dihydroisoquin-olin-2(1H)-yl)methanone] | 0.001 to 10 |
| O=C(Cc1nnn[nH]1)N1CCc2ccc(Oc3ccc(C(F)(F)F)c(F)c3)cc2C1 [P-0148, 1-(7-(3-fluoro-4-(trifluoromethyl)phen-oxy)-3,4-dihydroisoquin-olin-2(1H)-yl)-2-(1H-tetrazol-5-yl)ethan-1-one] | 0.001 to 10 |
| NC(=O)CN1CCc2ccc(Oc3ccc(C(F)(F)F)cc3)cc2C1 [P-0026, 2-(7-(4-(trifluorometh-yl)phenoxy)-3,4-dihydro-isoquinolin-2(1H)-yl)-acetamide] | 0.001 to 10 |
| Nc1nc(CC(=O)N2CCc3ccc(Oc4ccc(C(F)(F)F)cc4)cc3C2)cs1 [P-0137, 2-(2-aminothiazol-4-yl)-1-(7-(4-(trifluoromethyl)-phenoxy)-3,4-dihydroiso-quinolin-2(1H)-yl)ethan-1-one] | 0.001 to 10 |
| O=C(CCS(=O)(=O)C(F)(F)F)N1CCc2ccc(Oc3ccc(C(F)(F)F)c(F)c3)cc2C1 [P-0141, 1-(7-(3-fluoro-4-(trifluoromethyl)phen-oxy)-3,4-dihydroiso-quinolin-2(1H)-yl)-3-((trifluoromethyl)sulfon-yl)propan-1-one] | 0.001 to 10 |
| CS(=O)(=O)c1ccnc(N2CCc3ccc(Oc4ccc(C(F)(F)F)cc4)cc3C2)c1 [P-0227, 2-(4-(methylsulfonyl)pyr-idin-2-yl)-7-(4-(trifluoro-methyl)phenoxy)-1,2,3,4-tetrahydroisoquinoline] | 0.001 to 10 |
| NC(=O)N1CCC(C(=O)N2CCc3c(cccc3Oc3ccc(C(F)(F)F)cc3)C2)C1 (stereo not shown) [P-0256, 3-(5-(4-(trifluorometh-yl)phenoxy)-1,2,3,4-tetrahydroisoquinoline-2-carbonyl)pyrrolidine-1-carboxamide] | 0.001 to 10 |
| NC(=O)N1CCc2ccc(Oc3ccc(C(F)(F)F)cc3)cc2C1 [P-0010, 7-(4-(trifluoromethyl)-phenoxy)-3,4-dihydroiso-quinoline-2(1H)-carbox-amide] | 0.001 to 10 |
| Cc1nnc(CCC(=O)N2CCc3ccc(Oc4ccc(C(F)(F)F)cc4)cc3C2)s1 [P-0046, 3-(5-methyl-1,3,4-thiadi-azol-2-yl)-1-(7-(4-(trifluoromethyl)phen-oxy)-3,4-dihydroisoquin-olin-2(1H)-yl)propan-1-one] | 0.001 to 10 |
| C=CC(=O)N1CCC(C(=O)N2CCc3ccc(Oc4ccc(C(F)(F)F)c(F)c4)cc3C2)CC1 [P-0121, 1-(4-(7-(3-fluoro-4-(trifluoromethyl)phen-oxy)-1,2,3,4-tetrahydro-isoquinoline-2-carbon-yl)piperidin-1-yl)prop-2-en-1-one] | 0.001 to 10 |
| CS(=O)(=O)CCC(=O)N1CCc2ccc(Oc3ccc(C(F)(F)F)cc3)cc2C1CC1CN(C(=O)CO)C1 (stereo not shown) [P-0202, 1-(1-((1-(2-hydroxyacet-yl)azetidin-3-yl)methyl)-7-(4-(trifluoromethyl)-phenoxy)-3,4-dihydro-isoquinolin-2(1H)-yl)-3-(methylsulfonyl)-propan-1-one] | 0.001 to 10 |

Same assay, conditions: MSTO-211H+12XGTIIC cell line, luciferase signal normalized to cell viability, 24 hours compound incubation; read-out: MSTO-211H GMean IC50 (uM) Cell Assay Reporter Cell Variant: TEAD

| SMILES | IC50 [µM] |
| --- | --- |
| C=CC(=O)N1CCC(C2c3cc(Oc4ccc(C(F)(F)F)cc4)ccc3CCN2C(=O)CCS(C)(=O)=O)C1 (single isomer, unassigned) [P-0218, 1-(3-(2-(3-(methylsulfonyl)propanoyl)-7-(4-(trifluoromethyl)phenoxy)-1,2,3,4-tetrahydroisoquinolin-1-yl)pyrrolidin-1-yl)prop-2-en-1-one] | 0.001 to 10 |

Source: patent US20250129028A1, “COMPOUNDS AND METHODS FOR YAP/TEAD MODULATION AND INDICATIONS THEREFOR” (Opna Bio SA, priority 2022, published 2025)
